Results: article PMC3364162 (Journal of Medicinal Chemistry, 2012)

T1: SRC2-2 coactivator peptide SRC2-2 (Homo sapiens, UniProt Q15596)
T1 chain: KHKILHRLLQDSS


Assays:
[1] = in vitro; details: PAMPA, pH 7.4
[2] = system: DU145 cells; assay: Cytotoxicity in DU145 cells; format: cell-based, human
[3] = system: HEK293T cells; assay: Toxicity by CellTiter-Glo; format: cell-based, human; details: Conc. 62.5 μM
[4] = biological target: T1, SRC2-2 coactivator peptide SRC2-2

Row | Molecule | Papp [1] [nm/s] | Toxicity (%) [3] [%] | further results
1 | Cc1[nH]c2ccccc2c1C(Nc1ccccc1)c1ccc(CCCO)cc1 (stereo not shown) [30i] | 1.48 | – | –
2 | Cc1[nH]c2ccccc2c1C(Nc1ccc(Cl)cc1)c1ccccc1Cl (stereo not shown) [31b] | – | – | Concentration above which increased cytotoxicity was observed [2]: higher than 20 μM
3 | COC(=O)c1ccc2c(c1)C(C)(C)C(/C=C/c1ccc(OC)cc1)=[N+]2C [compound 1] | 0.138 | – | –
4 | COc1ccc(/C=C/C2=[N+](C)c3ccc(OC)cc3C2(C)C)cc1 [compound 2] | 2.82 | – | –
5 | CC(C)CS(=O)(=O)c1oc(-c2cccs2)nc1S(=O)(=O)c1ccc(F)cc1 [compound 9] | 1.66 | – | –
6 | CC(C)S(=O)(=O)c1oc(-c2cccs2)nc1S(=O)(=O)c1ccccc1 [compound 10] | 4.37 | – | –
7 | COc1ccc(C(Nc2ccccn2)c2c(C)[nH]c3ccccc23)cc1 (stereo not shown) [compound 11] | – | 100 | –
8 | Cc1ccc(C(Nc2ccccn2)c2c(C)[nH]c3ccccc23)cc1 (stereo not shown) [compound 12] | – | 90 | –
9 | COc1cccc(C(Nc2ccccn2)c2c(C)[nH]c3ccccc23)c1 (stereo not shown) [compound 13] | – | 60 | –
10 | Cc1[nH]c2ccccc2c1C(Nc1ccccn1)c1ccc(F)cc1 (stereo not shown) [compound 16] | – | 100 | –
11 | Cc1[nH]c2ccccc2c1C(Nc1ccccn1)c1cccc(Cl)c1 (stereo not shown) [compound 18] | – | 100 | –
12 | COc1ccc(OC)c(S(=O)(=O)ON2C(=O)c3ccccc3C2=O)c1 [compound 21] | 0.145 | 50 | –
13 | CCc1ccc(S(=O)(=O)ON2C(=O)c3ccccc3C2=O)cc1 [compound 22] | 0.148 | – | –
14 | Cc1c(C=O)c(C(=O)O)c(C)n1Cc1ccc(Cl)cc1 [compound 23] | 0.0525 | 20 | –
15 | O=Cc1nc2ccccc2n1Cc1ccc2ccccc2c1 [compound 24] | 5.13 | – | –
16 | O=Cc1nc2ccccc2n1Cc1ccc(Cl)cc1Cl [compound 25] | 3.02 | – | –
17 | COCC(=O)Oc1c(Sc2ccc(Cl)cc2)c(C)nn1-c1ccccc1 [compound 26] | 0.331 | 0 | –
18 | Vitamin D receptor (protein) MEAMAASTSLPDPGDFDRNVPRICGVCGDRATGFHFNAMTCEGCKGFFRRSMKRKALFTCPFNGDCRITKDNRRHCQACRLKRCVDIGMMKEFILTDEEVQRKREMILKRKEEEALKDSLRPKLSEEQQRIIAILLDAHHKTYDPTYSDFCQFRPPVRVNDGGGSHPSRPNSRHTPSFSGDSSSSCSDHCITSSDMMDSSSFSNLDLSEEDSDDPSVTLELSQLSMLPHLADLVSYSIQKVIGFAKMIPGFRDLTSEDQIVLLKSSAIEVIMLRSNESFTMDDMSWTCGNQDYKYRVSDVTKAGHSLELIEPLIKFQVGLKKLNLHEEEHVLLMAICIVSPDRPGVQDAALIEAIQDRLSNTLQTYIRCRHPPPGSHLLYAKMIQKLADLRSLNEEHSKQYRCLSFQPECSMKLTPLVLEVFGNEIS | – | – | Kd [4]: 1.7 µM

Second part, led by results:

Row | Papp [1] [nm/s] | Molecule | Toxicity (%) [3] [%] | further results
19 | 0.0603 | CCOc1ccc(/C=C/C2=[N+](C)c3ccc(C(=O)OC)cc3C2(C)C)cc1 [compound 3] | – | –
20 | 0.117 | COC(=O)c1ccc(/C=C/C2=[N+](C)c3ccc(OC)cc3C2(C)C)cc1 [compound 4] | – | –
21 | 0.2 | COC(=O)c1ccc2c(c1)C(C)(C)C(/C=C/c1ccc(O)cc1)=[N+]2C [compound 5] | – | –
22 | 2.51 | CCCS(=O)(=O)c1oc(-c2cccs2)nc1S(=O)(=O)c1ccc(F)cc1 [compound 7] | – | –
23 | 2.14 | CCS(=O)(=O)c1oc(-c2cccs2)nc1S(=O)(=O)c1ccccc1 [compound 8] | – | –
24 | 0.0195 | Cc1ccc(S(=O)(=O)ON2C(=O)c3ccccc3C2=O)cc1 [compound 20] | 50 | –
25 | 0.525 | Nc1nc2ccc(S(=O)(=O)N3CCCCC3)cc2s1 [compound 27] | – | –
26 | 1.66 | CCCCNC(=O)Cn1sc2nc(C)cc(C)c2c1=O [compound 28] | – | –
27 | 11.2 | Cc1cccc(N2COc3ccc4ccccc4c3C2)c1 [compound 29] | – | –
